In US4291036A, “Pyrido[1,2-A]pyrimidine derivatives and method of analgesic treatment” (priority 1977, dated 1981):
Where a name gives a salt, the structure may show the parent alone. Read-outs that look alike come from different tables or passages of the source.

Experiments:
[1] = Toxicity (LD50; Litchfield and Wilcoxon); details: in vivo
From the text: Toxicity: Litchfield J. T. and Wilcoxon: J. Pharmacol. Sci 54 (1965) 888.

[2] = Hot plate test (analgesia); type: in vivo, rats; details: for ED50: Rattus norvegicus
Method: (§1) The analgesic effect was tested on the hot-plate and algolytic tests.
Hot plate test: Woolfe and McDonald J. Pharm. 80, 300 (1944) modified by Porszasz and Herr: Kiserletes Orvostudomany 2, 292 (1950).

[3] = Analgesic potency compared with Probon, dog; type: in vivo
[4] = dog, in vivo
From the text: Beagles are much more sensitive to CNS effects than rats, Rhesus monkeys and man.

[5] = rat, in vivo
[6] = Inhibition of the CNS effects of Probon; details: in vivo
[7] = Analgesic potency compared with Probon, rat; type: in vivo
[8] = Algolytic test (analgesia); type: in vivo; details: for Algolytic test ED100: p.o.
Method: as §1
Algolytic test: J. Knoll et. al: Animal and Clinical Pharmacological Techniques in Drug Evaluation Eds. Siegler, P. E. and Meyer J. II. Year Book Medical Pub. Chicago (1967) pages 305-321.

[9] = s.c.; Knoll et al. 1971; cited from earlier work
[10] = s.c.; Knoll et al. 1971; cited from earlier work; remark: listed apart in the source
[11] = Table I, route not given, read-out: LD50
[12] = Table IV, rats, i.v., read-out: LD50 rats i.v.
[13] = po, Table IV, rats, p.o., read-out: Hot plate test ED50 p.o.
[14] = po, Table IV, rats, p.o., read-out: LD50 rats p.o.
[15] = sc, Table IV, rats, s.c., read-out: LD50 rats s.c.
[16] = sc, Table IV, rats, s.c., read-out: Hot plate test ED50 s.c.
[17] = iv, Table IV, rats, i.v., read-out: Hot plate test ED50 i.v.
[18] = iv, Table III, i.v., read-out: LD50 i.v.
[19] = po, Table III, p.o., read-out: LD50 p.o.
[20] = sc, Table III, s.c., read-out: LD50 s.c.
[21] = po, Table II, p.o., read-out: Hot plate test ED50
[22] = po, Table III, p.o., read-out: ED50 hot-plate p.o.
[23] = sc, Table III, s.c., read-out: ED50 hot-plate s.c.
[24] = iv, Table III, i.v., read-out: ED50 hot-plate i.v.

With `Cc1nc2cccc(C)n2c(=O)c1C.Cl` [2,3,6-trimethyl-4-oxo-4H-pyrido[1,2-a]pyrimidine hydrochloride] as the molecule, how does the LD50 [1, 11] read?
The LD50 was 780 µmol/kg.

What about the LD50 [1, 12] of the same molecule?
Its LD50 is 175 mg/kg.

And the ED50 [2, 13]?
Its ED50 is 87 mg/kg.

For `CCc1c(C)nc2cccc(C)n2c1=O` [2,6-dimethyl-3-ethyl-4-oxo-4H-pyrido[1,2-a]pyrimidine], which “analgesic potency compared with Probon” value [3] is on record?
Its value is “more potent analgesic than Probon”.

What about the CNS symptoms [4] of the same molecule?
Its CNS symptoms is “failing to elicit the CNS symptoms”.

And the CNS symptoms [5]?
The CNS symptoms was “failing to elicit the CNS symptoms”.

What about the “inhibition of the CNS effects of Probon” value [6] of the same molecule?
The value was “strongly inhibit the CNS effects of Probon”.

What about the “analgesic potency compared with Probon” value [7] of the same molecule?
The value was “more potent analgesic than Probon”.

Which LD50 [1, 14] does the source give for `CCCCc1c(C)nc2cccc(C)n2c1=O.Cl` [2,6-dimethyl-3-n-butyl-4-oxo-4H-pyrido[1,2-a]pyrimidine hydrochloride] here?
The LD50 was 1100 mg/kg.

What about the ED50 [2, 13] of the same molecule?
Its ED50 is 340 mg/kg.

Which results are given for `CCCc1c(C)nc2cccc(C)n2c1=O.Cl` [2,6-dimethyl-3-n-propyl-4-oxo-4H-pyrido[1,2-a]pyrimidine hydrochloride]?
LD50 [1, 14]: 1000 mg/kg; LD50 [1, 15]: 1200 mg/kg; LD50 [1, 11]: 316 µmol/kg; ED50 [2, 16]: 48 mg/kg

With `CCc1c(C)nc2ccc(C)cn2c1=O` [2,7-dimethyl-3-ethyl-4-oxo-4H-pyrido[1,2-a]pyrimidine . HCl] as the molecule, how does the LD50 [1, 14] read?
Its LD50 is 900 mg/kg.

And the LD50 [1, 15]?
Its LD50 is 800 mg/kg.

And the LD50 [1, 12]?
The LD50 was 175 mg/kg.

And the ED50 [2, 17]?
The ED50 was 75 mg/kg.

What about the ED50 [2, 13] of the same molecule?
Its ED50 is 500 mg/kg.

And the ED50 [2, 16]?
The ED50 was 150 mg/kg.

With `CCc1c(C)nc2c(C)cccn2c1=O.Cl` [2,9-dimethyl-3-ethyl-4-oxo-4H-pyrido[1,2-a]pyrimidine HCl] as the molecule, how does the LD50 [1, 14] read?
The LD50 was 820 mg/kg.

What about the ED50 [2, 13] of the same molecule?
Its ED50 is 310 mg/kg.

For `CCc1c(C)nc2ccc(Cl)cn2c1=O.Cl` [2-methyl-3-ethyl-7-chloro-4-oxo-4H-pyrido[1,2-a]pyrimidine hydrochloride], which LD50 [1, 14] is on record?
The LD50 was 1100 mg/kg.

What about the ED50 [2, 13] of the same molecule?
Its ED50 is 98 mg/kg.

With `CCCCc1c(C)nc2ccccn2c1=O` [2-methyl-3-n-butyl-4-oxo-4H-pyrido[1,2-a]pyrimidine . HCl] as the molecule, how does the LD50 [1, 14] read?
Its LD50 is 1100 mg/kg.

What about the ED50 [2, 13] of the same molecule?
Its ED50 is 251 mg/kg.

Which LD50 [1, 11] does the source give for `CCCc1c(C)nc2ccccn2c1=O.Cl` [2-methyl-3-n-propyl-4-oxo-4H-pyrido[1,2-a]pyrimidine hydrochloride] here?
The LD50 was 502 µmol/kg.

For `CCc1nc2cccc(C)n2c(=O)c1C.Cl` [3,6-dimethyl-2-ethyl-4-oxo-4H-pyrido[1,2-a]pyrimidine hydrochloride], which LD50 [1, 11] is on record?
Its LD50 is 120 µmol/kg.

Which LD50 [1, 18] does the source give for `CCc1c(C)nc2cccc(C)n2c1=O.Cl` [Compound A, 2,6-dimethyl-3-ethyl-4-oxo-4H-pyrido[1,2-a]pyrimidine hydrochloride] here?
The LD50 was 190 mg/kg.

And the LD50 [1, 19]?
The LD50 was 690 mg/kg.

And the LD50 [1, 20]?
The LD50 was 520 mg/kg.

What about the LD50 [1, 11] of the same molecule?
The LD50 was 796 µmol/kg.

What about the ED50 [2, 21] of the same molecule?
Its ED50 is 68 mg/kg.

What about the ED50 [2, 22] of the same molecule?
The ED50 was 68 mg/kg.

What about the ED50 [2, 13] of the same molecule?
The ED50 was 68 mg/kg.

And the ED50 [2, 23]?
Its ED50 is 74 mg/kg.

What about the ED50 [2, 16] of the same molecule?
The ED50 was 74 mg/kg.

What about the ED50 hot-plate p.o. ([2]; Table III, p.o., hydrochloride) of the same molecule?
Its ED50 hot-plate p.o. is 58 mg/kg.

And the “algolytic (+5mg./kg morphine), result in words” value ([8]; Table III)?
Its value is “effective per se”.

What about the “ED50 algolytic (+5mg./kg morphine)” value ([8]; Table III, s.c.) of the same molecule?
Its value is 8.6 mg/kg.

And the ED100 ([8]; po, Table II)?
Its ED100 is 420 mg/kg.

What about the ED50 ([8]; sc) of the same molecule?
The ED50 was 98 mg/kg.

Which results are given for `CCc1c(C)nc2ccccn2c1=O` [Compound B, 2-methyl-3-ethyl-4-oxo-4H-pyrido[1,2-a]pyrimidine.HCl]?
LD50 [1, 18]: 280 mg/kg; LD50 [1, 19]: 1000 mg/kg; LD50 [1, 20]: 620 mg/kg; LD50 [1, 11]: 1070 µmol/kg; ED50 [2, 24]: 100 mg/kg; ED50 [2, 17]: 100 mg/kg; ED50 [2, 21]: 330 mg/kg; ED50 [2, 22]: 300 mg/kg; ED50 [2, 13]: 300 mg/kg; ED50 [2, 23]: 180 mg/kg; ED50 [2, 16]: 180 mg/kg; Algolytic test ED100 ([8]; Table II): cannot be achieved; ED50 algolytic (+5mg./kg morphine) ([8]; Table III, i.v.): 2.75 mg/kg

What does the source list for `CCc1c(C)nc2cc(C)cc(C)n2c1=O` [Compound C, 2,6,8-trimethyl-3-ethyl-4-oxo-4H-pyrido[1,2-a]pyrimidine.HCl]?
LD50 [1, 18]: 120 mg/kg; LD50 [1, 19]: 1500 mg/kg; LD50 [1, 20]: 820 mg/kg; ED50 [2, 24]: 49 mg/kg; ED50 [2, 17]: 49 mg/kg; ED50 [2, 21]: 580 mg/kg; ED50 [2, 22]: 580 mg/kg; ED50 [2, 13]: 580 mg/kg; ED50 [2, 23]: 120 mg/kg; ED50 [2, 16]: 120 mg/kg; Algolytic test ED100 ([8]; Table II): cannot be achieved

For `CCOC(=O)c1c[n+](C)c2n(c1=O)C(C)CCC2` (stereo not shown) [Probon, 1,6-dimethyl-3-ethoxycarbonyl-4-oxo-4H-6,7,8,9-tetrahydro-pyrido[1,2-a]pyrimidinium-methosulfate, reference compound], which “dose eliciting characteristic desynchronization of the EEG” value [9] is on record?
The value was at least 250 mg/kg.

And the LD50 ([1]; iv, read-out: LD50 rats i.v.)?
The LD50 was 220 mg/kg.

What about the LD50 ([1]; po, read-out: LD50 rats p.o.) of the same molecule?
Its LD50 is 1600 mg/kg.

And the LD50 ([1]; read-out: LD50)?
The LD50 was 607 µmol/kg.

What about the “dose causing death of the animal” value ([4]; po) of the same molecule?
Its value is 300 mg/kg.

And the “oral dose at which disturbances of coordination and behavior, ataxia appear” value ([4]; po)?
The value was “above 100 mg./kg. body weight”.

What about the “oral dose level at which CNS symptoms are very marked” value ([4]; po) of the same molecule?
The value was 150 to 200 mg/kg.

And the ED50 [2, 17]?
The ED50 was 50 mg/kg.

What about the ED50 [2, 13] of the same molecule?
Its ED50 is 220 mg/kg.

And the “dose causing inhibition of the conditioned reflex” value [10]?
Its value is at least 250 mg/kg.
